Reference: patent publication US20160333419A1, “GENE SIGNATURES ASSOCIATED WITH SENSITIVITY TO MDM2 INHIBITORS” (DAIICHI SANKYO COMPANY, LIMITED, priority 2014, published 2016)

Experiments:
Test in all cases: OncoPanel cytotoxicity assay
Assay type in all cases: cell-based
HOS = details: Homo sapiens, 72 hour incubation
How it was run: (§1)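 Cells grown in RPMI 1640 with 10% FBS (or a special medium) at 37° C, 5% CO2 were treated 24 hours after seeding for 72 hours with 10 concentrations (3.16-fold dilutions, 0.1% DMSO final). Nuclei were dye-stained and imaged; IC50 was fit from percent of control relative cell count.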

SHP-77 = details: Homo sapiens, SHP77, 72 hour incubation
How it was run: as §1

HT-29 = details: Homo sapiens, 72 hour incubation
How it was run: as §1

SNB-19 = details: Homo sapiens, 72 hour incubation
How it was run: as §1

MES-SA = details: Homo sapiens, 72 hour incubation
How it was run: as §1

786-O = details: Homo sapiens, 786-0, 72 hour incubation
How it was run: as §1

BT20 = details: Homo sapiens, BT-20, 72 hour incubation
How it was run: as §1

SJSA1 = details: Homo sapiens, SJSA-1, 72 hour incubation
How it was run: as §1

ES-2 = details: Homo sapiens, 72 hour incubation
How it was run: as §1

SK-NEP-1 = details: Homo sapiens, 72 hour incubation
How it was run: as §1

JAR = details: Homo sapiens, 72 hour incubation
How it was run: as §1

HS 746T = details: Homo sapiens, Hs746T, 72 hour incubation
How it was run: as §1

BPH1 = details: Homo sapiens, BPH-1, 72 hour incubation
How it was run: as §1

Caki-1 = details: Homo sapiens, 72 hour incubation
How it was run: as §1

ST486 = details: Homo sapiens, 72 hour incubation
How it was run: as §1

BC-1 = details: Homo sapiens, BC1, 72 hour incubation
How it was run: as §1

SCC-4 = details: Homo sapiens, 72 hour incubation
How it was run: as §1

SW1783 = details: Homo sapiens, 72 hour incubation
How it was run: as §1

SW403 = details: Homo sapiens, SW-403, 72 hour incubation
How it was run: as §1

Wi38 = details: Homo sapiens, WI-38, 72 hour incubation
How it was run: as §1

MeWo = details: Homo sapiens, 72 hour incubation
How it was run: as §1

MDA-MB-436 = details: Homo sapiens, 72 hour incubation
How it was run: as §1

Hs 578T = details: Homo sapiens, 72 hour incubation
How it was run: as §1

KHOS-240S = details: Homo sapiens, 72 hour incubation
How it was run: as §1

BV-173 = details: Homo sapiens, 72 hour incubation
How it was run: as §1

ACHN = details: Homo sapiens, 72 hour incubation
How it was run: as §1

SW1417 = details: Homo sapiens, 72 hour incubation
How it was run: as §1

Colo 205 = details: Homo sapiens, 72 hour incubation
How it was run: as §1

T47D = details: Homo sapiens, 72 hour incubation
How it was run: as §1

DK-MG = details: Homo sapiens, 72 hour incubation
How it was run: as §1

U-87 MG = details: Homo sapiens, 72 hour incubation
How it was run: as §1

SW1463 = details: Homo sapiens, 72 hour incubation
How it was run: as §1

Capan-1 = details: Homo sapiens, 72 hour incubation
How it was run: as §1

G-401 = details: Homo sapiens, 72 hour incubation
How it was run: as §1

JEG-3 = details: Homo sapiens, 72 hour incubation
How it was run: as §1

MHH-PREB-1 = details: Homo sapiens, 72 hour incubation
How it was run: as §1

BT-549 = details: Homo sapiens, 72 hour incubation
How it was run: as §1

MOLT-16 = details: Homo sapiens, 72 hour incubation
How it was run: as §1

SMILES | IC50 (HOS) [µM] | IC50 (SHP-77) [µM] | IC50 (HT-29) [µM] | IC50 (SNB-19) [µM] | IC50 (MES-SA) [µM] | IC50 (786-O) [µM] | IC50 (BT20) [µM] | IC50 (SJSA1) [µM] | IC50 (ES-2) [µM] | IC50 (SK-NEP-1) [µM] | IC50 (JAR) [µM] | IC50 (HS 746T) [µM] | IC50 (BPH1) [µM] | IC50 (Caki-1) [µM] | IC50 (ST486) [µM] | IC50 (BC-1) [µM] | IC50 (SCC-4) [µM] | IC50 (SW1783) [µM] | IC50 (SW403) [µM] | IC50 (Wi38) [µM] | other results
CC[C@@H]1CNC2(CC2)CN1C(=O)[C@@H]1C[C@@H](F)CN1C(=O)C1=C(C(C)C)N2C(=N[C@@](C)(c3ccc(Cl)nc3)[C@H]2c2ccc(Cl)c(F)c2)S1 [Compound A, [(5R,6S)-5-(4-Chloro-3-fluorophenyl)-6-(6-chloropyridin-3-yl)-6-methyl-3-(propan-2-yl)-5,6-dihydroimidazo[2,1-b][1,3]thiazol-2-yl][(2S,4R)-2-{[(6R)-6-ethyl-4,7-diazaspiro[2.5]oct-7-yl]carbonyl}-4-fluoropyrrolidin-1-yl]methanone] | > 40 | > 40 | 33.5 | > 40 | 0.529 | 37.3 | > 40 | 0.214 | 14.5 | > 40 | 0.549 | 38.9 | > 40 | 0.275 | 24.3 | 0.464 | > 40 | > 40 | > 40 | 0.171 | IC50 (MeWo): > 40 µM; IC50 (MDA-MB-436): > 40 µM; IC50 (Hs 578T): > 40 µM; IC50 (KHOS-240S): > 40 µM; IC50 (BV-173): 0.601 µM; IC50 (ACHN): 1.07 µM; IC50 (SW1417): > 40 µM; IC50 (Colo 205): 36.7 µM; IC50 (T47D): 32.3 µM; IC50 (DK-MG): 0.645 µM; IC50 (U-87 MG): 0.261 µM; IC50 (SW1463): > 40 µM; IC50 (Capan-1): > 40 µM; IC50 (G-401): 0.242 µM; IC50 (JEG-3): 3.62 µM; IC50 (MHH-PREB-1): > 40 µM; IC50 (BT-549): > 40 µM; IC50 (MOLT-16): 0.236 µM
CC1(C)CCC2(CC1)N[C@@H](C(=O)N[C@@H]1CC[C@@H](C(N)=O)OC1)[C@H](c1ccnc(Cl)c1F)[C@]21C(=O)Nc2cc(Cl)ccc21 [Compound B, (3′R,4′S,5′R)—N-[(3R,6S)-6-carbamoyltetrahydro-2H-pyran-3-yl]-6″-chloro-4′-(2-chloro-3-fluoropyridin-4-yl)-4,4-dimethyl-2″-oxo-1″,2″-dihydrodispiro[cyclohexane-1,2′-pyrrolidine-3′,3″-indole]-5′-carboxamide] | > 10 | 8.32 | 5.14 | > 10 | 0.0641 | 0.342 | > 10 | 0.0261 | 6.3 | > 10 | 0.0861 | 5.85 | > 10 | 0.0387 | 6.44 | 0.074 | > 10 | > 10 | > 10 | 0.0379 | IC50 (MeWo): > 10 µM; IC50 (MDA-MB-436): > 10 µM; IC50 (Hs 578T): > 10 µM; IC50 (KHOS-240S): > 10 µM; IC50 (BV-173): 0.0873 µM; IC50 (ACHN): 0.174 µM; IC50 (SW1417): > 10 µM; IC50 (Colo 205): 9.48 µM; IC50 (T47D): 7.76 µM; IC50 (DK-MG): 0.0553 µM; IC50 (U-87 MG): 0.0376 µM; IC50 (SW1463): > 10 µM; IC50 (Capan-1): > 10 µM; IC50 (G-401): 0.0354 µM; IC50 (JEG-3): 0.249 µM; IC50 (MHH-PREB-1): 8.3 µM; IC50 (BT-549): > 10 µM; IC50 (MOLT-16): 0.0598 µM
